In this assay the test system is M. tuberculosis H37Rv growth inhibition. As to the kind of experiment: Mycobacterium tuberculosis H37Rv growth inhibition, putative kinase inhibitor library, confirmatory dose response (AID 2842).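 Further: bacteria incubated one week before Alamar blue readout.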

Each structure is given as a SMILES string. Converted amounts (≈) assume the structure as drawn.

In the case of `O=C(Nc1nnc(-c2ccc(Cl)s2)o1)C1CC1`, the IC90 (commonly the concentration needed for an effect of 90%) was 26.8 µg/mL (≈ 99.3 µM). For `Cc1nc2c(ccc3nc(NC(=O)Cc4ccccc4)sc32)s1` the value was 2.92 µg/mL (≈ 8.6 µM); for `Cc1ccc(Nc2nc(N3CCN(Cc4ccccc4)CC3)nc3nccnc23)cc1`, 7.94 µg/mL (≈ 19.3 µM). For `COc1ccc(-c2nnc(NC(=O)c3ccc(Cl)cc3Cl)o2)cc1` the value was 14.1 µg/mL (≈ 38.7 µM); for `CCOC(=O)COc1ccc2cc(-c3ccc(OC)c(OC)c3)c(=O)oc2c1`, 2.18 µg/mL (≈ 5.67 µM).

Take `O=C(CSc1c[nH]c2ccccc12)Nc1ccc(Br)cc1`: the IC90 is 3.2 µg/mL (≈ 8.86 µM). For the molecule `COc1cccc(/C=N/Nc2nncc(=O)[nH]2)c1O`, the concentration for an effect of 90% (IC90) is 0.43 µg/mL (≈ 1.65 µM). For `O=C(CCc1ccccc1)Nc1nnc(-c2ccc3c(c2)CCCC3)o1` the value was 30 µg/mL (≈ 86.2 µM); for `CCc1cccc2sc(N(CCCn3ccnc3)C(=O)c3cccs3)nc12`, 0.34 µg/mL (≈ 0.857 µM); for `Cc1ccc2sc(N(CCCn3ccnc3)C(=O)c3ccco3)nc2c1C`, 0.58 µg/mL (≈ 1.52 µM). Then `Cc1ccc(C)c(-c2nnc(NC(=O)c3cc(Cl)ccc3[N+](=O)[O-])o2)c1`, with 0.68 µg/mL (≈ 1.82 µM).

Regarding `O=C(Nc1nnc(-c2ccc(Cl)cc2)o1)c1ccc([N+](=O)[O-])o1`, the IC90 is 0.26 µg/mL (≈ 0.777 µM). For `CCOc1cc(-c2nnc(NC(=O)c3cc4ccccc4cc3OC)o2)cc(OCC)c1OCC`, the IC90 is 2.68 µg/mL (≈ 5.61 µM). Then `CC(C)(C)C(=O)Nc1nnc(-c2ccc(Br)cc2)o1`, with less than 0.2 µg/mL.

For `CCOC(=O)CNC(=O)CSc1ncnc2c1nnn2-c1ccc(OC)cc1`, the IC90 was 6.79 µg/mL (≈ 16.9 µM). On to `Fc1ccc(Nc2nc(Nc3cccc(F)c3)nc3nccnc23)cc1`, for which the IC90 was 60.6 µg/mL (≈ 173 µM). For `CCC(CO)Nc1ncnc2c1cnn2-c1ccc(Cl)c(Cl)c1` (stereo unspecified) the value was 14.2 µg/mL (≈ 40.5 µM); for `COc1ccc(-c2noc(-c3cc(C(C)C)[nH]n3)n2)cc1`, 12.2 µg/mL (≈ 42.8 µM); for `O=C(Nc1nnc(-c2cccs2)o1)C1=COCCO1`, 6.18 µg/mL (≈ 22.1 µM). With `O=C(Nc1nnc(-c2ccc(Br)cc2)o1)c1cc(Cl)sc1Cl`, the IC90 was 3.43 µg/mL (≈ 8.18 µM).

On to `COC(=O)c1c(NC(=O)c2cc3ccccc3cc2OC)sc2c1CC(C)(C)NC2(C)C`, for which the 90% effect concentration (IC90) was 31.8 µg/mL (≈ 70.2 µM).

As for `O=C(c1cccs1)N(CCCn1ccnc1)c1nc2ccc(F)cc2s1`, the IC90 was 3.01 µg/mL (≈ 7.79 µM). Turning to `O=C(Nc1nnc(-c2cccs2)o1)c1cc(-c2ccccc2)nc2ccccc12`, the IC90 is 0.53 µg/mL (≈ 1.33 µM). For `O=C(OCn1nnc2ccccc2c1=O)c1cccs1` the value was 4.31 µg/mL (≈ 15 µM); for `O=C(Nc1nnc(-c2ccc(Cl)s2)o1)c1ccc([N+](=O)[O-])o1`, 0.85 µg/mL (≈ 2.49 µM). Regarding `O=C(Nc1nnc(-c2ccco2)o1)c1cccc(C(F)(F)F)c1`, the IC90 was less than 0.2 µg/mL. Then `N#CC1=C(N)OC2=C(C(=O)CC(c3ccccc3)C2)C1C1CCCCC1` (stereo unspecified), with 7.8 µg/mL (≈ 22.4 µM); and `O=C(Cc1cccc2ccccc12)Nc1nnc(-c2cccs2)o1`, with 40.1 µg/mL (≈ 120 µM); and `CN1C(=O)c2cccc(NC(=O)c3ccc([N+](=O)[O-])s3)c2C1=O`, with 25.1 µg/mL (≈ 75.7 µM). Then `O=C(Nc1nnc(-c2ccc(Br)cc2)o1)c1cc(Cl)ccc1Cl`, with 2.67 µg/mL (≈ 6.46 µM); and `O=C(Nc1nnc(-c2cc(Cl)ccc2Cl)o1)c1cc(Cl)ccc1Cl`, with 0.49 µg/mL (≈ 1.22 µM).

Turning to `c1ccc2sc(Nc3nc4cc5c(cc4s3)OCO5)nc2c1`, the IC90 was 18.6 µg/mL (≈ 56.9 µM). Then `Nc1c(C(=O)Nc2ccc(Br)cc2)sc2nc3c(c(-c4cccs4)c12)CCCC3`, with 5.12 µg/mL (≈ 10.6 µM); and `Cc1oc2c(c1C(=O)NCc1cccnc1)C(=O)c1ccccc1C2=O`, with 8.29 µg/mL (≈ 23.9 µM); and `CC(C)(C)C(=O)Nc1nnc(-c2cc(Cl)ccc2Cl)o1`, with less than 0.2 µg/mL. For `OC(CNCc1ccco1)Cn1c2ccc(Cl)cc2c2cc(Cl)ccc21` (stereo unspecified) the value was 1.71 µg/mL (≈ 4.39 µM); for `CS(=O)(=O)Nc1cccc(C2=NN(c3nc(-c4ccccc4)c4cc(Cl)ccc4n3)C(c3ccco3)C2)c1` (stereo unspecified), 1.42 µg/mL (≈ 2.61 µM); for `COc1ccc(C(=O)Nc2nc3c(s2)CCCC3)cc1OC`, 22.8 µg/mL (≈ 71.7 µM). For `CSc1nnc(C)c(=O)n1COC(=O)c1ccc2ccccc2c1` the value was 3.38 µg/mL (≈ 9.9 µM); for `Cc1cccc2sc(NNC(=O)c3cc(-c4cccs4)nc4ccccc34)nc12`, 22.8 µg/mL (≈ 54.8 µM); for `COC(=O)c1ccc(C(=O)NNc2nc3c(C)cc(C)cc3s2)cc1`, 6.49 µg/mL (≈ 18.3 µM). Take `Cc1ccccc1C(=O)Nc1nnc(-c2ccco2)o1`: the IC90 is 1.69 µg/mL (≈ 6.28 µM). For `Cc1ccc(C)c(-c2nnc(NC(=O)c3cccc(F)c3)o2)c1` the value was 30.9 µg/mL (≈ 99.2 µM). Then `O=C(Nc1nccs1)c1ccc2c(c1)CCCC2`, with 3.85 µg/mL (≈ 14.9 µM); and `Cc1ccc(C(=O)Nc2nnc(-c3ccncc3)o2)cc1C`, with 26.8 µg/mL (≈ 91 µM); and `COC(=O)C(C)Oc1ccc2cc(-c3ccc(OC)c(OC)c3)c(=O)oc2c1` (stereo unspecified), with 6.7 µg/mL (≈ 17.4 µM).

Consider `Cc1ccc(C)c(-c2nnc(NC(=O)c3c(F)cccc3F)o2)c1`, for which the IC90 was 5.74 µg/mL (≈ 17.4 µM). As to `Cc1ccc(C(=O)Nc2nnc(C3=COCCO3)o2)cc1`, the IC90 is 2.78 µg/mL (≈ 9.68 µM). Then `COC(=O)c1c(NC(=O)C(c2ccccc2)c2ccccc2)sc2c1CC(C)(C)NC2(C)C`, with 6.07 µg/mL (≈ 13.1 µM). For `Cc1c(Cl)ccc2sc(N(CCCn3ccnc3)C(=O)/C=C/c3cccs3)nc12` the value was 0.24 µg/mL (≈ 0.542 µM); for `CCc1cccc(OCC(O)Cn2c(NCc3ccccc3)nc3c2c(=O)[nH]c(=O)n3C)c1` (stereo unspecified), 22.1 µg/mL (≈ 49.1 µM); for `O=C(Nc1nnc(-c2ccc(Cl)s2)o1)C1CCCCC1`, 6.45 µg/mL (≈ 20.7 µM). For `Cc1cc(Nc2ccc(C)c(C)c2)n2ncc(-c3ccccc3)c2n1` the value was 3.44 µg/mL (≈ 10.5 µM); for `COc1cc2ccccc2cc1C(=O)Nc1nccs1`, 30.2 µg/mL (≈ 106 µM). For `COc1ccc(CCNc2cnnc(NCCc3ccc(OC)cc3)n2)cc1`, the concentration for an effect of 90% (IC90) is 24.5 µg/mL (≈ 64.6 µM). Regarding `Cc1ccc(-c2nnc(NC(=O)c3ccccc3Br)o2)c(C)c1`, the IC90 is 0.27 µg/mL (≈ 0.725 µM). As to `Cc1ccc(C)c(-c2nnc(NC(=O)c3cccc([N+](=O)[O-])c3)o2)c1`, the IC90 is 29.6 µg/mL (≈ 87.4 µM).

In the case of `CC(=O)c1ccc(C(=O)Nc2nnc(-c3ccc(Cl)cc3)o2)cc1`, the IC90 is 1.8 µg/mL (≈ 5.27 µM). For the molecule `O=C(Nc1nnc(-c2ccc(Cl)cc2)o1)c1cccc(C(F)(F)F)c1`, the IC90 was 2.99 µg/mL (≈ 8.13 µM). For `Cc1cc(C)c2nc(NNC(=O)c3cc4ccccc4oc3=O)sc2c1` the value was 2.16 µg/mL (≈ 5.91 µM). For `CSc1cccc2sc(Nc3ccc(Cl)cc3)nc12` the value was 2.31 µg/mL (≈ 7.53 µM); for `Cc1ccc(C)c(-c2nnc(NC(=O)COc3ccccc3)o2)c1`, 2.24 µg/mL (≈ 6.93 µM); for `Cc1ccc(C(=O)Nc2nnc(-c3ccc(C)cc3C)o2)cc1`, 33.5 µg/mL (≈ 109 µM). For `Fc1cccc2sc(Nc3nc4cc5c(cc4s3)OCO5)nc12`, the IC90 was 11.1 µg/mL (≈ 32.1 µM). Then `CSc1cccc2sc(Nc3cccc(Cl)c3)nc12`, with 5.38 µg/mL (≈ 17.5 µM). Then `CC(C)c1ccc2nc(Nc3nc4ccc(S(C)(=O)=O)cc4s3)sc2c1`, with 12 µg/mL (≈ 29.8 µM); and `Cc1ccc(C)c(C(=O)Nc2nnc(-c3cc(C)ccc3C)o2)c1`, with 2.56 µg/mL (≈ 7.97 µM); and `CCOC(=O)N1CCN(c2ncnc3c2cnn3-c2ccc(C)c(C)c2)CC1`, with 9.11 µg/mL (≈ 23.9 µM).

`O=C(Nc1nnc(-c2ccc3c(c2)CCCC3)o1)c1ccccc1Cl`: the 90% effect concentration (IC90) is 1.11 µg/mL (≈ 3.14 µM). Then `O=C(Nc1nnc(-c2ccc(Cl)s2)o1)c1c(F)cccc1F`, with 3.8 µg/mL (≈ 11.1 µM). As to `COc1ccc(-c2nnc(SCC(=O)Nc3cc(C)on3)o2)cc1`, the IC90 is 6.72 µg/mL (≈ 19.4 µM). Consider `CC(=O)Oc1cc(C)cc2oc(=O)c3c(c12)CCCC3`, for which the IC90 was 6.79 µg/mL (≈ 24.9 µM). For `O=C(Nc1nnc(-c2ccc(F)cc2)o1)c1ccc(Br)s1` the value was less than 0.2 µg/mL. Then `CCSc1ccc(C(=O)Nc2nnc(-c3ccco3)o2)cc1`, with 0.71 µg/mL (≈ 2.25 µM); and `NC(=O)c1c(NC(=O)c2ccc([N+](=O)[O-])s2)sc2c1CCN(Cc1ccccc1)C2`, with 0.46 µg/mL (≈ 1.04 µM); and `CC1CCCN(c2nc3c(c(=O)[nH]c(=O)n3C)n2CCCSc2nc3ccccc3s2)C1` (stereo unspecified), with 16.6 µg/mL (≈ 35.3 µM). For `Cc1ccc(-n2ncc3c(NCc4cccnc4)ncnc32)cc1C` the value was 6.03 µg/mL (≈ 18.3 µM); for `Cc1cc(C)c2sc(NNC(=O)c3ccc(S(=O)(=O)N4CCCCC4)cc3)nc2c1`, 29.4 µg/mL (≈ 66 µM). Regarding `CCc1cccc2sc(N(CCCn3ccnc3)C(=O)/C=C/c3cccs3)nc12`, the IC90 was 0.83 µg/mL (≈ 1.96 µM). Then `C=CCOC(=O)COc1ccc2cc(-c3ccc(OC)cc3)c(=O)oc2c1`, with 3.58 µg/mL (≈ 9.77 µM).

As to `O=C(Nc1nnc(-c2ccco2)o1)C1=COCCO1`, the IC90 was 50.9 µg/mL (≈ 193 µM). Then `Cc1cccc(Cn2c(N3CCN(Cc4ccc(Cl)cc4)CC3)nc3c2c(=O)[nH]c(=O)n3C)c1`, with 3.15 µg/mL (≈ 6.58 µM); and `O=C(Nc1nnc(-c2cccnc2)o1)c1ccccc1Cl`, with 53.5 µg/mL (≈ 178 µM). For `O=C(COc1ccccc1)Nc1nnc(-c2cc(Cl)ccc2Cl)o1` the value was 27.8 µg/mL (≈ 76.4 µM). With `COc1cc2ccccc2cc1C(=O)Nc1nnc(-c2cc(Cl)ccc2Cl)o1`, the concentration for an effect of 90% (IC90) is 27.6 µg/mL (≈ 66.5 µM). Then `COC(=O)c1cc(C(=O)OC)cc(-n2c(C)cc(C(=O)CCl)c2C)c1`, with 6.39 µg/mL (≈ 17.6 µM). For `Cc1ccc(-c2nnc(NC(=O)C3CC3)o2)c(C)c1` the value was 1.47 µg/mL (≈ 5.71 µM); for `COc1ccccc1-c1nnc(Nc2nc3ccc(SC)cc3s2)o1`, 15.9 µg/mL (≈ 42.9 µM); for `Cc1ccc(C)c(-c2nnc(NC(=O)c3ccc(Cl)cc3Cl)o2)c1`, 2.21 µg/mL (≈ 6.1 µM). Then `Cc1ccc(CC(=O)Nc2nnc(-c3ccco3)o2)c(C)c1`, with 17.9 µg/mL (≈ 60 µM); and `Cc1ccc(-c2nnc(NC(=O)c3ccccc3Cl)o2)c(C)c1`, with less than 0.2 µg/mL. Regarding `Cc1ccc(C)c2[nH]c(=O)c(CCNC(=S)NCCn3ccc4ccccc43)cc12`, the IC90 is 3.53 µg/mL (≈ 8.43 µM). With `O=C(c1ccco1)N(CCCn1ccnc1)c1nc2c(F)cccc2s1`, the IC90 was 3.11 µg/mL (≈ 8.4 µM). For `Cc1cccc(C(=O)Nc2nnc(-c3cccnc3)o2)c1` the value was 8.87 µg/mL (≈ 31.6 µM); for `O=C(CCSc1ccccc1)Nc1nnc(-c2ccc3c(c2)CCCC3)o1`, 1.93 µg/mL (≈ 5.09 µM); for `O=C(CSc1n[nH]c(=O)[nH]c1=O)c1ccccc1`, 12.1 µg/mL (≈ 45.9 µM). Then `O=C(Nc1nnc(C2=COCCO2)o1)c1ccc(F)cc1`, with 2.21 µg/mL (≈ 7.59 µM); and `CCN1CCc2c(sc(NC(=O)c3ccccc3)c2-c2nc3ccccc3s2)C1`, with 0.73 µg/mL (≈ 1.74 µM); and `COc1cc2c3nnc(-c4ccc(C)c(C)c4)c-3cn(Cc3ccccc3)c2cc1OC`, with 7.35 µg/mL (≈ 17.4 µM). In the case of `COc1ccc(OC)c(NC(=O)c2cc3cc(Cl)ccc3oc2=O)c1`, the IC90 was 0.77 µg/mL (≈ 2.14 µM).

Consider `O=C(N=Nc1c(O)[nH]c2ccccc12)c1cc(-c2cccc(OCc3ccccc3)c2)n[nH]1`, for which the IC90 is 20.2 µg/mL (≈ 46.2 µM).

The values are drawn from PubChem BioAssay AID2842 (Southern Research Institute, 2010).
